Results published in paper PMC12669040, “Tumour-specific STING agonist synthesis via a two-component prodrug system” (Nature Chemistry, 2025).
Read-outs that look alike come from different tables or passages of the source.

How the values were obtained:
[1] = system: STING pathway effectors (pSTING, pTBK1, pIRF3) in THP-1 Lucia ISG cells; experiment: Western blots of STING pathway activation; format: cell-based, human; details: 5 μM
Procedure: THP-1 Lucia ISG cells were maintained as described above. […] Cells were treated with cycloheximide (50 µg ml^−1) and incubated for 50 min at 37 °C. Treated cells were then combined with the growth medium containing SC2S dimer (5 µM final concentration) to 1 × 10^6 cells ml^−1 and incubated at 37 °C. At each timepoint, a portion (3 ml) of the cell suspension was withdrawn. Withdrawn cells were pelleted (300g, 3 min), washed with PBS (1 ml), pelleted again (300g, 3 min) and resuspended to a density of 1 × 10^7 cells ml^−1 in ice-cold lysis buffer (25 mM Tris pH 7.6, 150 mM NaCl, 1% NP-40, 1% sodium deoxycholate and 0.1% SDS) supplied with protease/phosphatase inhibitor tablets (Pierce A32961) and freshly prepared phenylmethylsulfonyl fluoride (1 mM). Lysates were further disrupted by sonication at low power (5 s × 3 cycles). Sonicated lysates were clarified by centrifugation at 4 °C (13,000g, 5 min). […] Samples were reduced and denatured at 95 °C for 5 min before being separated on a precast polyacrylamide gel (Invitrogen NuPAGE 4–12% Bis-Tris, 20 µg total protein per lane). Protein bands were then transferred to a polyvinylidene difluoride membrane (Invitrogen iBlot2). […]

THP-1 cells = experiment: Dilution limits of N1/E4 combination to activate THP-1 cells (IFN-β ELISA)
[2] = target: T1, wild-type human STING LBD (hSTINGwt 138-379) (Homo sapiens, UniProt Q86WV6, H232R); experiment: Isothermal titration calorimetry (ITC), reverse titration; format: binding
T1 construct: SUMO (N, cleaved yes); made in house; host or cells: Escherichia coli BL21 (DE3)
Procedure: Escherichia coli BL21 (DE3) (Thermo Scientific EC0114) was transformed with a pET28a plasmid (Genscript) harbouring the codon-optimized sequence of SUMO-hSTINGwt (aa138-379). Transformed BL21 cells were inoculated into LB medium (50 µg ml^−1 kanamycin) and incubated at 180 rpm, 37 °C overnight. The overnight culture was then diluted (1:100 dilution) in 2× YT medium (50 µg ml^−1 kanamycin) and incubated at 180 rpm, 37 °C until optical density at 600 nm (OD600) reached 0.6 (approximately 3 h). The bacterial culture was then cooled to 16 °C, induced with 0.5 mM isopropyl 1-thio-D-galactopyranoside and incubated overnight at 180 rpm, 16 °C. The bacterial cells were pelleted at 4,000g for 30 min, resuspended in 20 ml of lysis buffer (25 mM HEPES pH 7.5, 150 mM NaCl, 20 mM imidazole and 2 mM TCEP supplied with 2 tablets of cOmplete mini EDTA-free protease inhibitors) and disrupted by sonication on ice. The total lysate was clarified by centrifugation at 22,000g for 30 min. The supernatant was collected and filtered through a 0.45-µm filter (Millipore SLHAR33SS). The clarified lysate was then incubated on a roller with 10 ml bed volume of Ni-NTA resin (Thermo Scientific 88223) at 4 °C for 1 h. The Ni-NTA resin was then packed in a column, flushed with 20 ml of wash buffer (25 mM HEPES pH 7.5, 150 mM NaCl and 20 mM imidazole) and eluted with 40 ml of elution buffer (25 mM HEPES pH 8.0, 150 mM NaCl and 250 mM imidazole). The eluted protein was concentrated to approximately 5 ml (Millipore Amicon 10 kDa molecular weight cut-off (MWCO)) and buffer-exchanged into storage buffer (25 mM HEPES pH 7.5 and 150 mM NaCl). TCEP was then added to a final concentration of 2 mM, and 250 units of SUMO protease (Merck SAE0067) were added. The cleavage reaction mixture was left to stand at 4 °C overnight until LC–MS analysis indicated the completion of the cleavage reaction. The cleavage mixture was incubated with 10 ml bed volume of Ni-NTA resin on a roller at 4 °C for 1 h and packed in a disposable column. The flowthrough was collected, and the resin was further flushed with 20 ml of wash buffer. The eluted fractions were combined, concentrated and further purified by size-exclusion chromatography (Cytiva, Superdex 200 Increase 10/300 GL). The purified protein in storage buffer was concentrated to 330 µM (dimer concentration) as determined by bicinchoninic acid (BCA) assay, aliquoted, flash-frozen in liquid nitrogen and stored at −80 °C for future use.
The binding constants of purified dimers were measured by ITC (Malvern Panalytical AutoITC200) in a reverse-titration format. Stock DMSO solutions of each dimer were dissolved in titration buffer (25 mM HEPES pH 7.5 and 150 mM NaCl) to a final concentration of 25 µM and added to the titration cell. The syringe was filled with 250 µM of purified STING in a matching buffer. Titration was performed at 25 °C with the following parameters: 750 rpm stirring, 0.2 µl initial injection followed by 2-µl injections of the […] every 120 s. Titration of STING protein into blank buffer was separately performed and subtracted from the raw data before the analysis. The background-subtracted titration curves were fitted with the built-in Origin software using the standard one-site model.
Extended Data Fig. 2 Isothermal titration calorimetry (ITC) data for binding constant measurements. Purified hSTINGwt138-379 (250 μM of homodimer) was titrated into each dimer (25 μM) dissolved in a matching buffer (25 mM HEPES pH 7.5, 150 mM NaCl) at 25 °C and 750 rpm stirring. Binding constants were reported as the average from duplicate measurements.

T1 sequence (Q86WV6 138-379 H232R): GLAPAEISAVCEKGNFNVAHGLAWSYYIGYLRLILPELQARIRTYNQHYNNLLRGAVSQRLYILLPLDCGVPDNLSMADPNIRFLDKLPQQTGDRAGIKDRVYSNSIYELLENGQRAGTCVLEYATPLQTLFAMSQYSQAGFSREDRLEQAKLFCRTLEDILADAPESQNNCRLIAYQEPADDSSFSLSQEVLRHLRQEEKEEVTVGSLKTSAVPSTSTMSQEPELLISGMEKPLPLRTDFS

SMILES: COc1cc2sc(C(=O)CCC(=O)O)cc2cc1SCCSc1cc2cc(C(=O)CCC(=O)O)sc2cc1OC [SC2S]
- phosphorylation of major STING pathway proteins [1]: confirmed the phosphorylation of major STING pathway proteins
- Response from SC2S, OD 450 (THP-1 cells; 0.195312 uM): 0.075
- Response from SC2S, OD 450 (THP-1 cells; 0.390625 uM): 0.634
- Response from SC2S, OD 450 (THP-1 cells; 0.78125 uM): 1.146
- Response from SC2S, OD 450 (THP-1 cells; 1.5625 uM): 2.392
- Response from SC2S, OD 450 (THP-1 cells; 3.125 uM): 2.683
- Response from SC2S, OD 450 (THP-1 cells; 6.25 uM): 2.764
- Response from SC2S, OD 450 (THP-1 cells; 12.5 uM): 2.752
- Response from SC2S, OD 450 (THP-1 cells; 25 uM, defined as 100% activation): 2.757
- Kd ([2]; 25 °C, average of duplicate measurements, read-out: Kd hSTINGwt (binding constant, ITC)): 0.176 µM
- Kd ([2]; ITC run _01, read-out: Kd): 0.191 µM
- Kd ([2]; ITC run _02, read-out: Kd): 0.16 µM
